Data set [1] is described as follows: Test 4: inhibition of radical production from DPPH. As to conditions: tested substance 100 μM in methanol, 30 minutes, absorbance 517 nm. As to the method: Test 4 is a colorimetric test which must not be satisfied by the precursor of B or B1 (precursor of the X2 or X2a of the formulas (I) and (II) respectively). The inhibition of the production of radicals from DPPH (2,2-diphenyl-1-picryl-hydrazyl) is described in M. S. Nenseter et Al., Atheroscler. Thromb. 15, 1338-1344, 1995. 100 μM solutions in methanol of the tested substances are prepared, and an aliquot of each of said solutions is added to a DPPH solution in methanol 0.1 M. After having stored the solutions at room temperature away from light for 30 minutes, their absorbances are read at the wave length of 517 nm, together with that of the corresponding DPPH solution at the same concentration. The absorbance decrease with respect to that of the solution of DPPH at the same concentration of the test solutions is determined. The effectiveness of the tested compound in inhibiting formation of radicals by DPPH is expressed by the following formula: (1−AS/AC)×100 wherein AS and AC are respectively the absorbance values of the solution containing the test compound together with DPPH and of the solution containing only DPPH. Test 4 is satisfied when the inhibition is equal or greater than 50%.
Test 4: Inhibition of the Radical Production from DPPH of Some Substances Used as Precursors of B or B1 (Ref. Formulas I and II of the Invention)
The method is based on a calorimetric test in which DPPH (2,2-diphenyl-1-picryl-hydrazyl) is used as the compound-forming radicals (M. S. Nenseter et Al., Atheroscler. Thromb. 15, 1338-1344, 1995).
Solutions in methanol of the tested substances at a final concentration 100 μM are initially prepared. 0.1 ml of each of these solutions are added to aliquots of 1 ml of a methanol solution 0.1 M of DPPH and then the final volume is brought to 1.5 ml. After having stored the solutions at room temperature away from light for 30 minutes, the absorbance at the wave length of 517 nm is read. It is determined the absorbance decrease with respect to the absorbance of a solution containing the same concentration of DPPH.
The efficacy of the test compound to inhibit the production of radicals, or antiradical activity, is expressed by the following formula: (1−AS/AC)×100 wherein AS and AC are, respectively, the absorbance values of the solution containing the test compound together+DPPH and of the solution containing only DPPH.

Data set [2] can be described thus: Test 5: inhibition of radical production from FeII (deoxyribose degradation). The following applies: 10^-4 M methanolic solution, 37° C. one hour, absorbance 532 nm. As to the method: Test 5 is a […] test wherein 0.1 ml aliquots of 10^−4 M methanolic solutions of the tested products are added to test tubes containing a solution formed by 0.2 ml of 2 mM desoxyribose, 0.4 ml of phosphate buffer pH 7.4 100 mM and 0.1 ml of 1 mM Fe^II(NH4)2(SO4)2 in 2 mM HCl. The test tubes are then maintained at 37° C. for one hour. Then in each test tube 0.5 ml of a 2.8% solution in water of trichloroacetic acid and 0.5 ml of an aqueous 0.1 M solution of thiobarbituric acid are added, in the order. A reference blank is formed by adding to a test tube containing only the above described aqueous solution of reactants 0.1 ml of methanol. The test tubes are closed and heated in an oil bath at 100° C. for 15 minutes. A pink coloration is developed the intensity of which is proportional to the quantity of desoxyribose undergone to radical oxidative degradation. The solutions are cooled at room temperature and their absorbances are read at 532 nm against the blank. The inhibition induced by the precursor of B or B1 or C=-Tc-Y—H in the confront of radical production by Fe^II is determined by means of the following formula: (1−As/Ac)×100 wherein As and Ac are respectively the absorbance values of the solution containing the tested compound+the iron salt and that of the solution containing only the iron salt, the compound meets test 5 when the inhibition percentage of radical production as above defined from the precursor of B or B1 or C=-Tc-Y—H is higher than or equal to 50%. […]
0.1 ml aliquots of 10^−4 M methanolic solutions of 4-thiazolidin carboxylic acid and 2-oxo-4-thiazolidin carboxylic acid are added to test tubes containing an aqueous solution formed by mixing 0.2 ml of 2 mM deoxyribose, 0.4 ml of buffer phosphate pH 7.4 100 mM and 0.1 ml of 1 mM Fe^II(NH4)2(SO4)2 in 2 mM HCl. […] A pink coloration develops the intensity of which is proportional to the quantity of deoxyribose undergone to radical oxidative degradation. The solutions are cooled at room temperature and their absorbances at 532 nm are read against the blank. […]

Data set [3] deals with Human endothelial cells of the umbilical vein. The data set can be described thus: Test 2 (CIP): apoptosis (DNA fragmentation) induced by cumene hydroperoxide in endothelial cells. In kind it is cell-based. The following applies: drug 10^-4 M; for inhibition of apoptosis induced by CIP (in words, t Student p<0.01): CIP 5 mM.
Description: Test 2 (CIP): Protection parameter of endothelial cell against the oxidative stress induced by cumene hydroperoxide (CIP).
Human endothelial cells of the umbilical vein are prepared according to an usual standard procedure. Fresh umbilical veins are filled with a 0.1% by weight collagenase solution and incubated at 37° C. for 5 minutes.
The cells are collected from the perfusate by centrifugation and harvested in culture flasks T-75, pretreated with human fibronectin. The cells are then harvested in the same medium, further added with 10 ng/ml of bovine hypothalamic growth factor. When the cells of the primary cell culture (i.e. that directly obtained from ex-vivo) form a single layer of confluent cells (about 8,000,000 cells/flask), the culture is stopped and the layers washed and trypsinized. The cellular suspensions are transferred into the wells of a cell culture plate having 24 wells, half of which is then additioned with the same culture medium containing the drug at a 10^−4M concentration, and harvested in a thermostat at 37° C. at a constant moisture. Only the cells coming from said first sub-cultures are used for the experiments with cumene hydroperoxide (CIP).
Before starting the test, the cellular culture medium is removed and the cellular layers are carefully washed with a physiologic solution at a temperature of 37° C. The wells of the culture plate are then incubated for one hour with CIP at a 5 mM concentration in the culture medium. […] 5 replicates for each sample are carried out.
Human endothelial cells of the umbilical vein are prepared according to a standard method. Fresh umbilical veins are filled with a collagenase solution 0.1% by weight and incubated at 37° C. for 5 minutes.
The cells are collected from the perfusate by centrifugation at 800 rpm and harvested in culture flasks T-75, pretreated with human fibronectin. Cells are then harvested in the same medium, added with bovine hypothalamic growth factor (100 ng/ml). When the cells of the primary cell culture (the cells directly removed from ex-vivo umbilical vein) form a single layer of confluent cells (about 8,000,000 cells/flask), harvesting is stopped and the layers are washed and trypsinized. The cellular suspensions are transferred into wells of a culture plate having 24 wells, half of said wells being added with the same culture medium containing the drug at a 10^−4M concentration, and harvested in a thermostat at 37° C. at a constant moisture (90%), CO2=5%. When the drug is not soluble in the culture medium, it is formerly dissolved in a small amount of dimethylsulphoxide. The maximum amount of dimethylsulphoxide which can be added to the culture medium is 0.5%. Only the cells coming from these first subcultures are used for the tests with cumene hydroperoxide (CIP). The cells are identified as endothelial cells by morphological examination and by the specific immunological reaction towards factor VIII; these cultures did never show contaminations from myocytes or fibroblasts.
Before starting the test, the cellular culture medium is removed and the cellular layers are carefully washed with a standard physiologic solution buffered with phosphate 0.1 M pH 7.0, at the temperature of 37° C. The content of each well is then incubated for one hour with a CIP suspension in the culture medium at a 5 mM concentration. Evaluation of the cellular damage (apoptosis) is carried out by determining the percent variation of the DNA fragmentation in the cultures containing the drug+CIP with respect to the controls treated with CIP only. […] The fluorescence of each sample was determined on 5 replicates. Statistic evaluation has been made with t Student test (p<0.01).
Another data set relates to gastric mucosa. The data set can be described thus: Example F6: gastric tolerability of invention compounds versus precursor drugs, with or without L-NAME. The following applies: rat, in vivo, 4 weeks. In kind it is in vivo, rats. From the text:
Gastric Tolerability Test of the Compounds According to the Invention in the Confront of the Corresponding Precursor Drugs in Conditions of Endothelial Dysfunctions Induced by L-NAME (N^w-nitro-L-arginine-methyl ester).

The nature of the next data set: in vivo. The following applies: rat, in vivo. How it is done: (§1) The animals are sacrificed after 24 hours and then one proceeds to the evaluation of the damage to the gastrointestinal mucosa.
The next data set relates to gastrointestinal mucosa. The data set can be described thus: Test 1 (NEM): gastric tolerability of precursor drugs in rats treated or not with N-ethylmaleimide. As to conditions: rat, in vivo, 24 h. As to the method:
The animals (rats) are distributed in the following groups (no. 10 animals for group):
• 1° group: treatment: only carrier (aqueous suspension 1% w/v of carboxymethylcellulose, dose: 5 ml/Kg when the drug is administered by os, or a physiologic solution when parenterally administered, i.e. by subcutaneous, intraperitoneal, intravenous or intramuscular route), • 2° group: treatment: carrier as above defined+NEM, B) Groups Treated with the Drug: • group I: treatment: carrier+drug, • group II: treatment: carrier+drug+NEM.
The administration routes are those known for the drug, and can be the oral or subcutaneous, intraperitoneal, intravenous or intramuscular route.
as §1
Test 1—Experimental Model in Vivo with N-ethylmaleimide (NEM): Study of the Gastric Tolerability of Some Drugs Screened as Precursors of the Compounds of the Invention.
The animals (rats, weight about 200 g) are distributed in the following groups (No. 10 animals for group):
• 1° group: treatment: only carrier (aqueous suspension 1% w/v of carboxymethylcellulose, dose: 5 ml/Kg when the drug is administered by os, physiologic solution when by parenteral route), • 2° group: treatment: carrier+NEM B) Groups Administered with Each Drug: • group I: treatment: carrier+drug, • group II: treatment: carrier+drug+NEM.
The drug is administered one hour later, in suspension in the carrier. Animals are sacrificed after 24 hours and evaluation of the damage to the gastrointestinal mucosa is made by counting the number of rats, inside each group, with lesions to the stomach at a visual inspection. The total number of said rats is then divided by the total number of rats of the group and multiplied by 100.

The subject of data set [4] is gastrointestinal mucosa, GPT, blood pressure. The following applies: rat, in vivo; for Gastroenteropathy % without L-NAME: 4 weeks. How it is done: The endothelial dysfunction is evaluated by determining the damage to the gastrointestinal mucosa, the hepatic damage and blood hypertension induced by administration of L-NAME.
The animals (rats) are divided in groups as herein below shown. The group receiving L-NAME is treated for 4 weeks with said compound dissolved at a concentration of 400 mg/litre in drinking water. The following groups are constituted (No. 10 animals for group):
• 1° group: only carrier (aqueous suspension 1% w/v of carboxymethylcellulose, dose: 5 ml/Kg when the drug is administered by os, phisiologic solution when administered parenterally), • 2° group: carrier+L-NAME, B) Groups Administered with the Drug: • 3° group: carrier+drug, • 4° group: carrier+drug+L-NAME.
The administration routes are those known for the drug, and can be the oral or subcutaneous, intraperiteneal, intravenous or intramuscular route. […] The drug is administered once a day for 4 weeks.
At the end of the four weeks treatment access to water is prevented and after 24 hours the animals are sacrificed.
One hour before the sacrifice blood-pressure is determined, and a blood pressure increase is taken as an evaluation of the damage to vascular endothelium. […] The hepatic damage is determined by evaluation of the glutamic-pyruvic transaminase (GPT increase) after sacrifice.
Test 3-Experimental in Vivo Model with N^w-nitro-L-arginine-methyl ester (L-NAME): Gastric Tolerability (Gastrointestinal Damage Incidence), Hepatic (GPT Dosage, Glutamic-pyruvic Transaminase) and Cardiovascular (Blood Pressure) Tolerability of Some Drugs Screened as Precursors of the Compounds of the Invention.
The endothelial dysfunction is evaluated by determining the damage induced by L-NAME administration to the gastrointestinal mucosa, the hepatic damage (GPT increase), and the vascular endothelium or cardiovascular damage as blood hypertension.
The animals (rats, average weight 200 g) are divided in groups as herein below described. The group receiving L-NAME is treated for 4 weeks with said compound dissolved at the concentration of 400 mg/litre in drinking water. The following groups (No. 10 animals for group) are constituted:
• 1° group: treatment: only carrier (aqueous suspension 1% w/v of carboxymethylcellulose, dose: 5 ml/Kg when the drug is administered by os, physiologic solution when by parenteral route), • 2° group: treatment: carrier+L-NAME, B) Groups Treated with the Drug: • 3° group: treatment: carrier+drug, • 4° group: treatment: carrier+drug+L-NAME.
Each drug is administered once a day for 4 weeks.
At the end of the four weeks access to water is prevented and after 24 hours the animals are sacrificed.
One hour before the sacrifice blood pressure is determined and a blood pressure increase is taken as an indication of a damage being occurred to vascular endothelium.
The hepatic damage is determined by evaluation after the sacrifice of the glutamic-pyruvic transaminase (GPT increase).
The % gastric lesions have been determined as in Test 1.

These results are taken from US7402600B2, “Nitroderivatives of cardiovascular agents” (NicOx S.A., priority 1999, dated 2008).

For `O=C(O)C1CSCN1` (centres unmarked) [4-thiazolidin carboxylic acid], the “% inhibition radical production from DPPH” value in data set [1] is reported as 0%; in data set [1] (listed as 4-Thiazolidincarboxylic acid), “does not inhibit at any extent”. For the same compound, in data set [2], the “% Radical Inhibition from Fe^II” value is 100%.
As to `Nc1c(Br)cc(Br)cc1CN[C@H]1CC[C@H](O)CC1` [Ambroxol, 4-[(2-amino-3,5-dibromophenyl)methylamino]cyclohexanol], in data set [3] (Homo sapiens, Endothelial cell, 1 h, CIP 5 mM for one hour, DNA fragmentation, read-out: Apoptosis % with respect to the controls treated only with CIP), the activity at 100 µM is 70%. In addition, in data set [3], the “inhibition of apoptosis induced by CIP (in words, t Student p<0.01)” value (“inhibition … (in words, t Student p<0.01)” below) is reported as “inhibit apoptosis”. In the data set with gastric mucosa, the “% gastropathy, animals not treated with L-NAME” value is on record as 60% and the “% gastropathy, animals treated with L-NAME” value is 80%. Also, in the data set “in vivo” (po), the MTD at 24 h worked out at 25 mg/kg. In addition, the “Gastro-enteropathy (% incidence) without NEM” value in the data set with gastrointestinal mucosa turned out to be 0%.
In the case of `COc1cccc2c1C(=O)c1c(O)c3c(c(O)c1C2=O)C[C@@](O)(C(=O)CO)C[C@@H]3O[C@H]1C[C@H](N)[C@H](O)[C@H](C)O1` [Doxorubicin], in data set [4], the “GPT % without L-NAME” value amounted to 195% and the “Gastroenteropathy % without L-NAME” value is 30%.
Consider `COc1ccc2c(c1)c(CC(=O)O)c(C)n2C(=O)c1ccc(Cl)cc1` [Indomethacin], for which the “inhibition … (in words, t Student p<0.01)” value in data set [3] is recorded as “not significantly different with respect to that of the controls”; in data set [3] (listed as indomethacin), “do not significantly inhibit apoptosis”. For the same compound, the MTD at 24 h in “in vivo” (po) came out at 7.5 mg/kg. Also, in the data set on gastrointestinal mucosa, the “Gastro-enteropathy (% incidence) without NEM” value was found to be 0%.
As to `COc1ccc2[nH]c([S+]([O-])Cc3ncc(C)c(OC)c3C)nc2c1` (centres unmarked) [Omeprazol], in data set [4], the “GPT % without L-NAME” value was 100% and the “Gastroenteropathy % without L-NAME” value turned out to be 0%. Also, the “inhibition … (in words, t Student p<0.01)” value in data set [3] is “do not significantly inhibit apoptosis”. In the data set “in vivo” (sc), this compound gave an MTD at 24 h of 30 mg/kg. Also, the “Gastro-enteropathy (% incidence) without NEM” value with gastrointestinal mucosa is listed as 0%.
For `Nc1c2c(nc3ccccc13)CCCC2` [Tacrine], in data set [3], the “inhibition … (in words, t Student p<0.01)” value is recorded as “do not significantly inhibit apoptosis”. Also, in the data set with gastric mucosa, the “% gastropathy, animals not treated with L-NAME” value was 80% and the “% gastropathy, animals treated with L-NAME” value stood at 70%. The compound also returned an MTD at 24 h in the data set “in vivo” (sc) of 1 mg/kg. Moreover, the “Gastro-enteropathy (% incidence) without NEM” value with gastrointestinal mucosa worked out at 0%.
As to `N[C@@H](Cc1c[nH]cn1)C(=O)O` [histidine], the “% inhibition radical production from DPPH” value in data set [1] was 0%. For the same compound, in data set [2], the “% Radical Inhibition from Fe^II” value came to 90%.
Regarding `O=C(O)CCC(=O)O` [succinic acid], the “% inhibition radical production from DPPH” value in data set [1] was 0%. For the same compound, the “% Radical Inhibition from Fe^II” value in data set [2] is 90%.
